Source: patent US20220265694A1, “COMPOSITIONS AND METHODS FOR TREATING AN INFECTION” (CMPD LICENSING, LLC, priority 2016, published 2022)

What was measured:
Enterococcus faecium = experiment: Expected efficacy of antibiotic agents; conditions: expected efficacy against Enterococcus faecium; Gram: pos
Legionella pneumophila = conditions: expected efficacy against Legionella pneumophila; Gram: neg
Mycoplasma pneumoniae = experiment: Expected efficacy of antibiotic agents; conditions: expected efficacy against Mycoplasma pneumoniae; Gram: n/a
Chlamydia pneumoniae = experiment: Expected efficacy of antibiotic agents; conditions: expected efficacy against Chlamydia pneumoniae; Gram: n/a
Haemophilus influenzae = experiment: Expected efficacy of antibiotic agents; conditions: expected efficacy against Haemophilus influenzae; Gram: neg
Neisseria gonorrhoeae = experiment: Expected efficacy of antibiotic agents; conditions: expected efficacy against Neisseria gonorrhoeae; Gram: neg
Enterobacter cloacae = experiment: Expected efficacy of antibiotic agents; conditions: expected efficacy against Enterobacter cloacae; Gram: neg
Clostridium perfringens = conditions: expected efficacy against Clostridium perfringens; Gram: anaer
Vibrio cholerae = experiment: Expected efficacy of antibiotic agents; conditions: expected efficacy against Vibrio cholerae; Gram: neg
Streptococcus pyogenes = experiment: Expected efficacy of antibiotic agents; conditions: expected efficacy against Streptococcus pyogenes; Gram: pos
[1] = test system: Methicillin resistant staph aureus (MRSA); experiment: Expected efficacy of antibiotic agents; conditions: expected efficacy against Methicillin resistant staph aureus (MRSA); Gram: pos
Bacteroides fragilis = experiment: Expected efficacy of antibiotic agents; conditions: expected efficacy against Bacteroides fragilis; Gram: anaer
Chlamydia psittaci = conditions: expected efficacy against Chlamydia psittaci; Gram: n/a
Moraxella catarrhalis = experiment: Expected efficacy of antibiotic agents; conditions: expected efficacy against Moraxella catarrhalis; Gram: neg
Streptococcus agalactiae = experiment: Expected efficacy of antibiotic agents; conditions: expected efficacy against Streptococcus agalactiae; Gram: pos
Peptostreptococcus = experiment: Expected efficacy of antibiotic agents; conditions: expected efficacy against Peptostreptococcus; Gram: pos
Enterobacter sakazakii = experiment: Expected efficacy of antibiotic agents; conditions: expected efficacy against Enterobacter sakazakii; Gram: neg
Campylobacter jejuni = experiment: Expected efficacy of antibiotic agents; conditions: expected efficacy against Campylobacter jejuni; Gram: neg
[2] = test system: Staphylococcus epidermidis; experiment: Expected efficacy of antibiotic agents; conditions: expected efficacy against Staphylococcus epidermidis; Gram: pos
Citrobacter diversus = experiment: Expected efficacy of antibiotic agents; conditions: expected efficacy against Citrobacter diversus; Gram: neg
[3] = test system: Corynebacterium urealyticum; experiment: Expected efficacy of antibiotic agents; conditions: expected efficacy against Corynebacterium urealyticum; Gram: pos
Escherichia coli = experiment: Expected efficacy of antibiotic agents; conditions: expected efficacy against Escherichia coli; Gram: neg
Neisseria meningitidis = experiment: Expected efficacy of antibiotic agents; conditions: expected efficacy against Neisseria meningitidis; Gram: neg
[4] = test system: Acinetobacter calcoaceticus; experiment: Expected efficacy of antibiotic agents; conditions: expected efficacy against Acinetobacter calcoaceticus; Gram: neg
Acinetobacter baumannii = experiment: Expected efficacy of antibiotic agents; conditions: expected efficacy against Acinetobacter baumannii; Gram: neg
Pseudomonas fluorescens = experiment: Expected efficacy of antibiotic agents; conditions: expected efficacy against Pseudomonas fluorescens; Gram: neg
Streptococcus pneumoniae = experiment: Expected efficacy of antibiotic agents; conditions: expected efficacy against Streptococcus pneumoniae; Gram: pos
Haemophilus ducreyi = experiment: Expected efficacy of antibiotic agents; conditions: expected efficacy against Haemophilus ducreyi; Gram: neg
Citrobacter freundii = experiment: Expected efficacy of antibiotic agents; conditions: expected efficacy against Citrobacter freundii; Gram: neg
Shigella dysenteriae = experiment: Expected efficacy of antibiotic agents; conditions: expected efficacy against Shigella dysenteriae; Gram: neg
Proteus vulgaris = experiment: Expected efficacy of antibiotic agents; conditions: expected efficacy against Proteus vulgaris; Gram: neg
Klebsiella pneumoniae = experiment: Expected efficacy of antibiotic agents; conditions: expected efficacy against Klebsiella pneumoniae; Gram: neg
Shigella boydii = experiment: Expected efficacy of antibiotic agents; conditions: expected efficacy against Shigella boydii; Gram: neg
Chlamydia trachomatis = experiment: Expected efficacy of antibiotic agents; conditions: expected efficacy against Chlamydia trachomatis; Gram: n/a
Shigella flexneri = experiment: Expected efficacy of antibiotic agents; conditions: expected efficacy against Shigella flexneri; Gram: neg
[5] = test system: Viridans group streptococci; experiment: Expected efficacy of antibiotic agents; conditions: expected efficacy against Viridans group streptococci; Gram: pos
Pseudomonas aeruginosa = experiment: Expected efficacy of antibiotic agents; conditions: expected efficacy against Pseudomonas aeruginosa; Gram: neg
[6] = test system: Staphylococcus aureus (MSSA); experiment: Expected efficacy of antibiotic agents; conditions: expected efficacy against Staphylococcus aureus (MSSA); Gram: pos
[7] = test system: Klebsiella (Calymmatobacterium); experiment: Expected efficacy of antibiotic agents; conditions: expected efficacy against Klebsiella (Calymmatobacterium); Gram: neg
Klebsiella oxytoca = experiment: Expected efficacy of antibiotic agents; conditions: expected efficacy against Klebsiella oxytoca; Gram: neg
Yersinia pestis = conditions: expected efficacy against Yersinia pestis; Gram: neg
Enterobacter aerogenes = experiment: Expected efficacy of antibiotic agents; conditions: expected efficacy against Enterobacter aerogenes; Gram: neg
Proteus mirabilis = experiment: Expected efficacy of antibiotic agents; conditions: expected efficacy against Proteus mirabilis; Gram: neg
Acinetobacter lwoffii = experiment: Expected efficacy of antibiotic agents; conditions: expected efficacy against Acinetobacter lwoffii; Gram: neg
Clostridium difficile = experiment: Expected efficacy of antibiotic agents; conditions: expected efficacy against Clostridium difficile; Gram: anaer
Enterococcus faecalis = experiment: Expected efficacy of antibiotic agents; conditions: expected efficacy against Enterococcus faecalis; Gram: pos
Shigella sonnei = experiment: Expected efficacy of antibiotic agents; conditions: expected efficacy against Shigella sonnei; Gram: neg
Corynebacterium jeikeium = experiment: Expected efficacy of antibiotic agents; conditions: expected efficacy against Corynebacterium jeikeium; Gram: pos
Bordetella pertussis = experiment: Expected efficacy of antibiotic agents; conditions: expected efficacy against Bordetella pertussis; Gram: neg
Serratia marcescens = experiment: Expected efficacy of antibiotic agents; conditions: expected efficacy against Serratia marcescens; Gram: neg
Rickettsiae = conditions: expected efficacy against Rickettsiae; Gram: neg
Morganella morganii = experiment: Expected efficacy of antibiotic agents; conditions: expected efficacy against Morganella morganii; Gram: neg
Salmonella typhi = experiment: Expected efficacy of antibiotic agents; conditions: expected efficacy against Salmonella typhi; Gram: neg
Francisella tularensis = conditions: expected efficacy against Francisella tularensis; Gram: neg
[8] = test system: Haemophilus parainfluenzae; experiment: Expected efficacy of antibiotic agents; conditions: expected efficacy against Haemophilus parainfluenzae; Gram: neg
Providencia rettgeri = experiment: Expected efficacy of antibiotic agents; conditions: expected efficacy against Providencia rettgeri; Gram: neg
Bartonella bacilliformis = experiment: Expected efficacy of antibiotic agents; conditions: expected efficacy against Bartonella bacilliformis; Gram: neg
Providencia stuartii = experiment: Expected efficacy of antibiotic agents; conditions: expected efficacy against Providencia stuartii; Gram: neg

NC[C@H]1O[C@H](O[C@H]2[C@H](O)[C@@H](O[C@H]3O[C@H](CO)[C@@H](O)[C@H](N)[C@H]3O)[C@H](N)C[C@@H]2N)[C@H](N)C[C@@H]1O [Tobramycin] was tested, and the Efficacy (Enterococcus faecium) was “no”, the Efficacy (Legionella pneumophila) was “no” and the Efficacy (Mycoplasma pneumoniae) was “no”. For the same compound, the Efficacy (Chlamydia pneumoniae) was “no”, the Efficacy (Haemophilus influenzae) was “yes” and the Efficacy (Neisseria gonorrhoeae) was “no”. For the same compound, the Efficacy (Enterobacter cloacae) was “yes”, the Efficacy (Clostridium perfringens) was “no” and the Efficacy (Vibrio cholerae) was “no”. The Efficacy (Streptococcus pyogenes) was “no”, the Efficacy [1] was “no” and the Efficacy (Bacteroides fragilis) was “no”. The Efficacy (Chlamydia psittaci) was “no”, the Efficacy (Moraxella catarrhalis) was “yes” and the Efficacy (Streptococcus agalactiae) was “no”. For the same compound, the Efficacy (Peptostreptococcus) was “no”, the Efficacy (Enterobacter sakazakii) was “yes” and the Efficacy (Campylobacter jejuni) was “yes”. For the same compound, the Efficacy [2] was “no”, the Efficacy (Citrobacter diversus) was “yes” and the Efficacy [3] was “no”. For the same compound, the Efficacy (Escherichia coli) was “yes”, the Efficacy (Neisseria meningitidis) was “no” and the Efficacy [4] was “no”. The Efficacy (Acinetobacter baumannii) was “no”, the Efficacy (Pseudomonas fluorescens) was “yes” and the Efficacy (Streptococcus pneumoniae) was “no”. The Efficacy (Haemophilus ducreyi) was “yes”, the Efficacy (Citrobacter freundii) was “yes” and the Efficacy (Shigella dysenteriae) was “yes”. For the same compound, the Efficacy (Proteus vulgaris) was “yes”, the Efficacy (Klebsiella pneumoniae) was “yes” and the Efficacy (Shigella boydii) was “yes”. For the same compound, the Efficacy (Chlamydia trachomatis) was “no”, the Efficacy (Shigella flexneri) was “yes” and the Efficacy [5] was “no”. For the same compound, the Efficacy (Pseudomonas aeruginosa) was “yes”, the Efficacy [6] was “no” and the Efficacy [7] was “yes”. For the same compound, the Efficacy (Klebsiella oxytoca) was “yes”, the Efficacy (Yersinia pestis) was “yes” and the Efficacy (Enterobacter aerogenes) was “yes”. For the same compound, the Efficacy (Proteus mirabilis) was “yes”, the Efficacy (Acinetobacter lwoffii) was “no” and the Efficacy (Clostridium difficile) was “no”. The Efficacy (Enterococcus faecalis) was “no”, the Efficacy (Shigella sonnei) was “yes” and the Efficacy (Corynebacterium jeikeium) was “no”. For the same compound, the Efficacy (Bordetella pertussis) was “no” and the Efficacy (Serratia marcescens) was “yes”.

O=C(O)c1cn(C2CC2)c2cc(N3CCNCC3)c(F)cc2c1=O [Ciprofloxacin] was tested, and the Efficacy (Enterococcus faecium) was “no”, the Efficacy (Legionella pneumophila) was “yes” and the Efficacy (Chlamydia pneumoniae) was “yes”. For the same compound, the Efficacy (Haemophilus influenzae) was “yes”, the Efficacy (Neisseria gonorrhoeae) was “yes” and the Efficacy (Vibrio cholerae) was “yes”. The Efficacy [1] was “no”, the Efficacy (Bacteroides fragilis) was “no” and the Efficacy (Rickettsiae) was “yes”. The Efficacy (Moraxella catarrhalis) was “yes”, the Efficacy (Morganella morganii) was “yes” and the Efficacy (Campylobacter jejuni) was “yes”. For the same compound, the Efficacy [2] was “yes”, the Efficacy (Citrobacter diversus) was “yes” and the Efficacy (Salmonella typhi) was “yes”. The Efficacy (Escherichia coli) was “yes”, the Efficacy (Neisseria meningitidis) was “yes” and the Efficacy (Francisella tularensis) was “yes”. The Efficacy (Pseudomonas fluorescens) was “yes”, the Efficacy (Citrobacter freundii) was “yes” and the Efficacy (Shigella dysenteriae) was “yes”. The Efficacy (Proteus vulgaris) was “yes”, the Efficacy (Klebsiella pneumoniae) was “yes” and the Efficacy (Shigella boydii) was “yes”. For the same compound, the Efficacy (Shigella flexneri) was “yes”, the Efficacy [8] was “yes” and the Efficacy (Providencia rettgeri) was “yes”. For the same compound, the Efficacy (Pseudomonas aeruginosa) was “yes”, the Efficacy (Klebsiella oxytoca) was “yes” and the Efficacy (Yersinia pestis) was “yes”. For the same compound, the Efficacy (Enterobacter aerogenes) was “yes”, the Efficacy (Proteus mirabilis) was “yes” and the Efficacy (Shigella sonnei) was “yes”. For the same compound, the Efficacy (Bartonella bacilliformis) was “yes”, the Efficacy (Providencia stuartii) was “yes” and the Efficacy (Corynebacterium jeikeium) was “no”. The Efficacy (Serratia marcescens) was “yes”.
